Consider 47 substances from patent US11214803B2, “Modulators of YAP1 expression” (Ionis Pharmaceuticals, Inc., priority 2019, dated 2022).

Strand notation (5' to 3'): a small letter for the sugar, then the base; units joined by * are phosphorothioate-linked, units joined directly phosphodiester-linked; [ ] holds rarer units or linkages, { } end groups; capitals alone tell only the bases. k = constrained ethyl (cEt); [5mC] = 5-methylcytosine; d = 2'-deoxy (DNA)

The subject of the first data set is Yap1 mRNA. The data set can be described thus: Antisense inhibition of human Yap1 in A-431 cells by cEt gapmers, single dose (Example 4, RTS4814). The format is cell-based. The settings on record: Table 14; A-431 cells, 5,000 cells per well, free uptake, 2,000 nM, approximately 48 hours; RTS4814; normalized to RIBOGREEN; Yap1 mRNA relative to untreated control; * = targets amplicon region of primer probe set. The method, boiled down: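 A-431 cells took up 3-10-3 cEt gapmers (16-mer, full phosphorothioate, 5-methylcytosines) by free uptake at 2,000 nM for about 48 h. Yap1 mRNA was quantified by qRT-PCR, normalized to total RNA (RIBOGREEN), and reported as % of untreated control.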
Regarding “1075424 (antisense kT*kT*kA*dT*dT*dA*dA*dT*d[5mC]*d[5mC]*dT*dG*dT*k[5mC]*k[5mC]*kA) [Compound 1075424]”, the “YAP1 (% UTC)” value came to 18 % UTC. As to “1075456 (antisense kT*kT*kA*d[5mC]*dG*dA*dA*dA*dT*dG*dT*dT*dT*kA*kG*kT) [Compound 1075456]”, the “YAP1 (% UTC)” value was 61 % UTC.

For the substance “1075488 (antisense k[5mC]*kA*kG*dA*dA*dT*dA*dA*dG*dG*dG*dA*dG*kA*kT*k[5mC]) [Compound 1075488]”, the “YAP1 (% UTC)” value is 56 % UTC.

As to “1075520 (k[5mC]*k[5mC]*k[5mC]*d[5mC]*dA*dA*d[5mC]*dA*dA*d[5mC]*dT*dG*d[5mC]*kT*kA*kA; antisense) [Compound 1075520]”, the “YAP1 (% UTC)” value turned out to be 77 % UTC. Same read-out and setting: then “1075552 (kG*kA*kT*dT*dA*dT*dA*dA*d[5mC]*dA*dT*dG*d[5mC]*kT*kG*kT; antisense) [Compound 1075552]”, with 74 % UTC; and “1075584 (kA*kA*kT*dA*dA*dT*dT*dG*dA*d[5mC]*d[5mC]*dT*dA*kG*k[5mC]*kA; antisense) [Compound 1075584]”, with 57 % UTC; and “1075616 (kG*kT*kA*dA*dA*dA*d[5mC]*d[5mC]*dG*dA*dT*dT*dT*kT*kT*k[5mC]; antisense) [Compound 1075616]”, with 46 % UTC. With “1075648 (kT*k[5mC]*kA*dA*dT*dA*dA*dA*dG*dT*dG*dG*dG*kA*k[5mC]*kT; antisense) [Compound 1075648]”, the “YAP1 (% UTC)” value was found to be 67 % UTC.

The data set is the same for the next values; noted with them: Table 15; A-431 cells, 5,000 cells per well, free uptake, 2,000 nM, approximately 48 hours; RTS4814; normalized to RIBOGREEN; Yap1 mRNA relative to untreated control; * = targets amplicon region of primer probe set.
In the case of “1075425 (antisense kA*kT*kT*dA*dT*dT*dA*dA*dT*d[5mC]*d[5mC]*dT*dG*kT*k[5mC]*k[5mC]) [Compound 1075425]”, the “YAP1 (% UTC)” value is 26 % UTC. Same read-out and setting: then “1075457 (antisense kA*kG*kT*dA*dA*dT*dA*dT*dG*dT*dA*d[5mC]*dA*kT*kG*kG) [Compound 1075457]”, with 5 % UTC; and “1075489 (antisense kG*kA*kG*d[5mC]*dA*dA*d[5mC]*dA*dA*d[5mC]*dT*dA*dT*kG*kA*kG) [Compound 1075489]”, with 51 % UTC. Same read-out and setting: to “1075521 (kA*kA*kA*dT*d[5mC]*dG*dA*dG*dG*d[5mC]*dG*dA*dA*kT*k[5mC]*kT; antisense) [Compound 1075521]” belongs 65 % UTC. Still for that read-out and setting: then “1075553 (kT*kG*kA*dT*dT*dA*dT*dA*dA*d[5mC]*dA*dT*dG*k[5mC]*kT*kG; antisense) [Compound 1075553]”, with 77 % UTC; and “1075585 (kA*kA*kA*dT*dA*dA*dT*dT*dG*dA*d[5mC]*d[5mC]*dT*kA*kG*k[5mC]; antisense) [Compound 1075585]”, with 52 % UTC. For “1075617 (kT*kA*kA*dG*dA*dA*d[5mC]*dG*dA*d[5mC]*dA*dT*dA*kT*kG*k[5mC]; antisense) [Compound 1075617]”, the “YAP1 (% UTC)” value is 27 % UTC. Still for that read-out and setting: to “1075649 (k[5mC]*kT*kT*d[5mC]*dA*dA*dT*dA*dA*dA*dG*dT*dG*kG*kG*kA; antisense) [Compound 1075649]” belongs 56 % UTC.

Still in this data set, the particulars now being: Table 16; A-431 cells, 5,000 cells per well, free uptake, 2,000 nM, approximately 48 hours; RTS4814; normalized to RIBOGREEN; Yap1 mRNA relative to untreated control cells.
For “1075426 (antisense kG*kT*kA*dT*dT*dA*dT*dT*dA*dA*dT*d[5mC]*d[5mC]*kT*kG*kT) [Compound 1075426]”, the “YAP1 (% UTC)” value is 49 % UTC. Consider “1075458 (antisense k[5mC]*k[5mC]*kA*d[5mC]*dA*dA*dT*dA*dT*dA*d[5mC]*dT*d[5mC]*k[5mC]*kA*kA) [Compound 1075458]”, for which the “YAP1 (% UTC)” value is given as 7 % UTC. For the substance “1075490 (antisense k[5mC]*kA*kT*dA*dT*dA*d[5mC]*dG*d[5mC]*dA*dA*dT*dT*kA*kG*kT) [Compound 1075490]”, the “YAP1 (% UTC)” value is 27 % UTC. Consider “1075522 (k[5mC]*kA*kA*dA*dT*d[5mC]*dG*dA*dG*dG*d[5mC]*dG*dA*kA*kT*k[5mC]; antisense) [Compound 1075522]”, for which the “YAP1 (% UTC)” value was determined as 82 % UTC. For the substance “1075554 (kT*kT*kG*d[5mC]*dA*dA*dT*dA*dG*dT*d[5mC]*dA*d[5mC]*k[5mC]*k[5mC]*kA; antisense) [Compound 1075554]”, the “YAP1 (% UTC)” value stood at 56 % UTC.

For “1075586 (kT*kA*kT*dT*dA*dG*d[5mC]*dA*d[5mC]*d[5mC]*dT*dG*dG*kG*kT*kA; antisense) [Compound 1075586]”, the “YAP1 (% UTC)” value is given as 64 % UTC. The same measure, in the same setting: then “1075618 (kT*kT*kT*dT*dA*dA*dG*dA*dA*d[5mC]*dG*dA*d[5mC]*kA*kT*kA; antisense) [Compound 1075618]”, with 69 % UTC; and “1075650 (kA*kT*kA*dT*dT*dA*d[5mC]*dA*dA*dT*d[5mC]*d[5mC]*d[5mC]*kA*kG*k[5mC]; antisense) [Compound 1075650]”, with 48 % UTC.

The same data set, now with this note: Table 17; A-431 cells, 5,000 cells per well, free uptake, 2,000 nM, approximately 48 hours; RTS4814; normalized to RIBOGREEN; Yap1 mRNA relative to untreated control cells.
Take “1075427 (antisense kT*kA*kT*dA*dA*dG*dG*d[5mC]*dA*dT*d[5mC]*dT*dT*kG*kG*kA) [Compound 1075427]”: the “YAP1 (% UTC)” value is recorded as 60 % UTC.

“1075459 (antisense kA*kA*k[5mC]*d[5mC]*dA*dA*dG*dG*dA*dT*dA*dG*dT*k[5mC]*kA*kT) [Compound 1075459]”: the “YAP1 (% UTC)” value was found to be 37 % UTC. Regarding “1075491 (antisense kG*kA*k[5mC]*dG*dG*dA*dA*dG*dT*dT*dG*d[5mC]*dA*kA*kG*kG) [Compound 1075491]”, the “YAP1 (% UTC)” value stood at 93 % UTC. Still for that read-out and setting: then “1075523 (kA*kA*kT*dT*dA*dA*dG*dG*dG*d[5mC]*d[5mC]*d[5mC]*dA*k[5mC]*kA*kA; antisense) [Compound 1075523]”, with 78 % UTC; and “1075555 (kG*k[5mC]*k[5mC]*dA*dA*dA*dA*dA*dT*dT*d[5mC]*dT*dT*kG*k[5mC]*kA; antisense) [Compound 1075555]”, with 92 % UTC.

As to “1075587 (k[5mC]*kT*kT*dA*dT*dT*dA*dG*d[5mC]*dA*d[5mC]*d[5mC]*dT*kG*kG*kG; antisense) [Compound 1075587]”, the “YAP1 (% UTC)” value amounted to 50 % UTC. On the same count and under the same terms, to “1075619 (k[5mC]*kT*kT*dA*dG*dA*dT*dA*d[5mC]*dT*dA*d[5mC]*dT*kT*kT*kG; antisense) [Compound 1075619]” belongs 54 % UTC; to “1075651 (kT*kA*kT*dA*dT*dT*dA*d[5mC]*dA*dA*dT*d[5mC]*d[5mC]*k[5mC]*kA*kG; antisense) [Compound 1075651]”, 57 % UTC.

Still in this data set, the particulars now being: Yap1 mRNA remaining as percent of untreated control; 3-10-3 cEt gapmers; A-431 cells; Table 36.
For “1075446 (antisense k[5mC]*kT*kA*dT*dA*dA*dA*dT*d[5mC]*d[5mC]*dT*d[5mC]*dA*kT*kG*kT) [compound 1075446]”, the “YAP1 (% UTC)” value is given as 87 % UTC.

Consider “1075478 (k[5mC]*kA*kT*dT*dT*dT*dG*dA*dA*d[5mC]*d[5mC]*d[5mC]*dT*kT*kT*kA; antisense) [compound 1075478]”, for which the “YAP1 (% UTC)” value is on record as 20 % UTC. In the case of “1075510 (kG*kA*kA*dT*dA*dA*d[5mC]*dA*d[5mC]*dA*dT*dA*dA*kT*k[5mC]*k[5mC]; antisense) [compound 1075510]”, the “YAP1 (% UTC)” value came out at 83 % UTC. Take “1075542 (kT*kG*kA*dG*dA*dA*dA*dG*dG*dT*dT*d[5mC]*d[5mC]*kT*kG*kA; antisense) [compound 1075542]”: the “YAP1 (% UTC)” value was 66 % UTC. The same measure, in the same setting: then “1075574 (antisense kA*kG*kT*d[5mC]*dA*dA*dG*dG*dA*dA*d[5mC]*d[5mC]*dT*kT*k[5mC]*kT) [compound 1075574]”, with 47 % UTC; and “1075606 (antisense kG*k[5mC]*kT*dA*dA*dA*d[5mC]*d[5mC]*dT*dA*d[5mC]*dA*d[5mC]*kG*k[5mC]*kT) [compound 1075606]”, with 82 % UTC. Consider “1075638 (antisense kA*kT*kT*dA*dA*d[5mC]*d[5mC]*dA*dG*dA*dA*dG*d[5mC]*k[5mC]*kT*kG) [compound 1075638]”, for which the “YAP1 (% UTC)” value stood at 79 % UTC.

As to “1075670 (antisense kT*kA*kT*dA*dT*dA*dT*dG*dA*dT*dG*dG*dA*k[5mC]*kT*kG) [compound 1075670]”, the “YAP1 (% UTC)” value is reported as 39 % UTC.

The same data set, now with this note: Yap1 mRNA remaining as percent of untreated control; 3-10-3 cEt gapmers; A-431 cells; Table 37.
As to “1075447 (antisense k[5mC]*kA*k[5mC]*dT*dA*dT*dA*dA*dA*dT*d[5mC]*d[5mC]*dT*k[5mC]*kA*kT) [compound 1075447]”, the “YAP1 (% UTC)” value came out at 96 % UTC.

On to “1075479 (kG*kA*k[5mC]*dA*dA*dT*dA*dA*dA*dT*d[5mC]*dT*dG*k[5mC]*k[5mC]*kT; antisense) [compound 1075479]”, for which the “YAP1 (% UTC)” value amounted to 77 % UTC. The same measure, in the same setting: to “1075511 (k[5mC]*kA*kA*dT*dA*dT*dT*dA*dT*d[5mC]*dT*dG*dA*kG*k[5mC]*kT; antisense) [compound 1075511]” belongs 106 % UTC; to “1075543 (kA*kT*kA*dT*dA*dT*dT*dA*dG*dG*dA*dG*dT*kT*kT*k[5mC]; antisense) [compound 1075543]”, 22 % UTC; to “1075575 (antisense kT*kT*kA*d[5mC]*dA*dA*d[5mC]*dA*d[5mC]*dA*dA*dG*dT*k[5mC]*kT*kA) [compound 1075575]”, 55 % UTC. The same measure, in the same setting: then “1075607 (antisense kA*kA*kA*dA*d[5mC]*dG*dG*dT*dG*dT*dG*dA*dA*kG*kA*kA) [compound 1075607]”, with 45 % UTC. “1075639 (antisense kA*kA*kT*dT*dA*dA*d[5mC]*d[5mC]*dA*dG*dA*dA*dG*k[5mC]*k[5mC]*kT) [compound 1075639]”: the “YAP1 (% UTC)” value is recorded as 101 % UTC.
